We go through 1 molecule from patent US20170348349A1, “Modulation of Amyloid Beta Toxicity and Processing By Xenon Gas” (NOBLIS THERAPEUTICS, INC., priority 2016, published 2017).

For data set [1] the following is noted: cited from earlier work.
Data set [2] concerns the target T1, Amyloid-beta protein (1-42) (Homo sapiens, UniProt P05067).
T1 construct: Amyloid-beta protein (1-42) hydrochloride salt (Bachem AG, Switzerland); purchased Bachem AG, Switzerland
The experiment in a line: Amyloid-beta (1-42) aggregation under anaesthetic gas: electrophoresis/western blot of monomer, LMW and HMW bands. The format is biochemical. As to conditions: Xenon (50%) in air balanced with 5% CO2, 37° C., 24 hours. The protocol: For detection of monomer formation Amyloid-beta protein (1-42) hydrochloride salt (Bachem AG, Switzerland) stored at −80° C. was removed and placed on ice. 1,1,1,3,3,3-hexafluoro-2-propanol (HFIP) (Sigma-Aldrich, Poole, UK) was placed on ice in the hood and allow to cool.110 HFIP was added to 0.5 mg amyloid- ? to produce a final concentration of 1 mM. The HFIP plus amyloid-beta solution was mixed on the vortex to ensure no solid remained on the vial edges. The HFIP plus amyloid-beta solution was incubated at room temperature for 60 minutes with the vial closed. The solution was then placed on ice for 10 minutes. The HFIP plus amyloid-beta solution was aliquoted into non-siliconized micro-centrifuge tubes amyloid-beta1-42). […]
When required peptide film containing tubes were removed from the −80° C. freezer and placed on ice. […] The protein was produced as above and was analysed immediately this was termed 0 hours. […]
The treated samples were centrifuged at 14,000 rpm at 4° C. for 10 minutes. […] The bands were detected with horseradish peroxidase-linked Ig anti-rabbit antibody (concentration 1:1000) (New England Biolab, Hitchin, UK) and visualised with the enhanced chemiluminesence system (ECL, Amersham Biosciences, Little Chalfont, UK). The monomer, LMW and HMW bands were located using a protein ladder to determine the molecular mass and were then quantified by densitometry (Adobe Photoshop). […]
(In general: In western blotting, separated proteins are transferred to a membrane and probed.)

Like-named read-outs stand apart in the source and are kept apart here.

T1 sequence (P05067 672-713 limits assumed): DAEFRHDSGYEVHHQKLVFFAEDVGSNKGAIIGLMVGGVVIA

With `[Xe]` [xenon], the safety entry in data set [1] (12 healthy volunteers, xenon in increasing concentrations 10%, 20%, 30%, 40% (Peterson-Felix et al.)) is “Safety was reported”. For the same molecule, the adverse events result in data set [1] (six healthy male volunteers, 21% xenon for 20 minutes (Yagi et al.)) is reported as “no adverse events”; in data set [1] (ten healthy adults, xenon 25%, 30% and 35%, each for 5-minute intervals (Sclabassi et al.)), “no adverse events”. The “Amyloid β aggregation (electrophoresis stain, FIG. 2A)” value in data set [2] was “reduces Amyloid β aggregation”.
